# Experimental data taken from patent US8715368B2, “Thiophene azo dyes and laundry care compositions containing the same” (The Procter & Gamble Company, priority 2010, dated 2014).
# Assay: Aqueous Partition Value of a dye (water/1-octanol partitioning, absorbance at λmax)
# Assay type: physicochemical
# Details: deionized water/1-octanol 10.0 mL each, APV=(Af/Ai)×100%
# Experimental: Dissolve in deionized water to a final volume of 10.0 mL an amount of dye sufficient to provide a solution absorbance value between 0.25 and 1.0, said absorbance being determined at the dye λmax between 400 nm and 750 nm, using a cuvette with 1.0 cm path length. Measure the absorbance of the sample at the dye λmax in a UV/Vis spectrophotometer, then transfer the entire 10.0 mL solution to a 50.0 mL plastic centrifuge tube. Add 10.0 mL of 1-octanol, cap the tube, and mix vigorously for 30 seconds using a Vortex™ mixer. Leave the tube standing undisturbed until the layers cleanly phase separate.
# Using a transfer pipette, withdraw an aliquot of the aqueous (bottom) layer and transfer it to a cuvette with 1.0 cm path length for spectrophotometric analysis. Analyze the solution as before, and quantify the absorbance loss at λmax as “% of Dye Remaining in Aqueous Layer” as detailed below: % of Dye Remaining in Aqueous Layer=Aqueous Partition Value (APV)=(Af/Ai)×100% wherein Ai is the initial solution absorbance at λmax and Af is the final solution absorbance at λmax. II. Method for Determining Hueing Efficiency for Detergents • a.) Two 25 cm×25 cm fabric swatches of 16 oz white cotton interlock knit fabric (270 g/square meter, brightened with Uvitex BNB fluorescent whitening agent, from Test Fabrics. P.O. Box 26, Weston, Pa., 18643) are obtained. • b.) Prepare two one liter aliquots of tap water containing 1.55 g of AATCC standard heavy duty liquid (HDL) test detergent. • c.) Add a sufficient amount the dye to be tested to one of the aliquots from Step b.) above to produce an aqueous solution absorbance of 1 AU. • d.) Wash one swatch from a.) above in one of the aliquots of water containing 1.55 g of AATCC standard heavy duty liquid (HDL) test detergent and wash the other swatch in the other aliquot. Such washing step should be conducted for 30 minutes at room temperature with agitation. After such washing step separately rinse the swatches in tap water and air dry the swatches in the dark. • e.) After rinsing and drying each swatch, the hueing efficiency, DE*eff, of the dye is assessed by determining the L*, a*, and b* value measurements of each swatch using a Hunter LabScan XE reflectance spectrophotometer with D65 illumination, 10° observer and UV filter excluded. The hueing efficiency of the dye is then calculated using the following equation: DE*eff=((L*c−L*s)^2+(a*c−a*s)^2+(b*c−b*s)^2)^1/2 • wherein the subscripts c and s respectively refer to the L*, a*, and b* values measured for the control, i.e., the fabric sample washed in detergent with no dye, and the fabric sample washed in detergent containing the dye to be screened. III. Method for Determining Wash Removability • a.) Prepare two separate 150 ml aliquots of HDL detergent solution, according to AATCC Test Method 61-2003, Test 2A and containing 1.55 g/liter of the AATCC HDL formula in distilled water. • b.) A 15 cm×5 cm sample of each fabric swatch from the Method for Determining of Hueing Efficiency For Detergents described above is washed in a Launderometer for 45 minutes at 49° C. in 150 ml of a the HDL detergent solution prepared according to Step 11. a.) above. • c.) The samples are rinsed with separate aliquots of rinse water and air dried in the dark, and then L*, a*, and b* value measurements of each swatch are taken using a Hunter LabScan XE reflectance spectrophotometer with D65 illumination, 10° observer and UV filter excluded. The amount of residual coloration is assessed by measuring the DE*res, calculated using the following equation: DE*res=((L*c−L*s)^2+(a*c−a*s)^2+(b*c−b*s)^2)^1/2 • wherein the subscripts c and s respectively refer to the L*, a*, and b* values measured for the control, i.e., the fabric sample initially washed in detergent with no dye, and the fabric sample initially washed in detergent containing the dye to be screened. The wash removal value for the dye is then calculated according to the formula: % removal=100×(1−DE*res/DE*eff). C. Test Results […]
row,% Dye in Water Layer,Structure (SMILES)
1,97%,COc1cc(/N=N/c2sc(C#N)c(C)c2C#N)c(C)cc1N(CCn1cc[n+](C)c1)CCn1cc[n+](C)c1 [Example 1]
2,56%,COc1cc(/N=N/c2sc(C#N)c(C)c2C#N)c(C)cc1N(CCOCCOCC[N+](CCO)(CCO)CCO)CCOCC[N+](CCO)(CCO)CCO [Example 22]
3,15%,CCN(CC[N+](CC)(CC)CC)c1ccc(/N=N/c2sc(C#N)c(C)c2C#N)c(C)c1 [Example 7]
4,15%,CCN(CCOCCOCCOCCOCC[N+](CC)(CC)CC)c1ccc(/N=N/c2sc(C#N)c(C)c2C#N)c(C)c1 [Example 12]
5,83%,Cc1cc(N(CCn2cc[n+](C)c2)CCn2cc[n+](C)c2)ccc1/N=N/c1sc(C#N)c(C)c1C#N [Example 2]
6,49%,CC[N+](CC)(CC)CCOCCOCCN(CCOCC[N+](CC)(CC)CC)c1cc(C)c(/N=N/c2sc(C#N)c(C)c2C#N)cc1OC [Example 18]
7,66%,CC[N+](CC)(CC)CCOCCOCCN(CCOCC[N+](CC)(CC)CC)c1ccc(/N=N/c2sc(C#N)c(C)c2C#N)c(C)c1 [Example 35]
8,75%,COc1cc(/N=N/c2sc(C#N)c(C)c2C#N)c(C)cc1N(CCOCCOCC[N+](C)(C)CCO)CCOCC[N+](C)(C)CCO [Example 21]
9,94%,CC[N+](CC)(CC)CCN(CC[N+](CC)(CC)CC)c1ccc(/N=N/c2sc(C#N)c(C)c2C#N)c(C)c1 [Example 36]
10,78%,CC[N+](CC)(CC)CCOCCOCCN(CCOCC[N+](CC)(CC)CC)c1cc(OC)c(/N=N/c2sc(C#N)c(C)c2C#N)cc1OC [Example 19]
